Data on 2 molecules can be found in article PMC7938888, “Antidepressant drugs act by directly binding to TRKB neurotrophin receptors” (Cell, 2021).

The Kd is the equilibrium constant for the complex coming apart.

In data set [1] the target is T1, TRKA (Homo sapiens, UniProt P04629).
T1 construct: expressed in transfected cells; host or cells: MG87.TRKA (NIH 3T3 mouse fibroblasts stably expressing TRKA)
Description: Cell-free ligand binding assay, TRKA from MG87 cells. The conditions noted are these: compared to TRKB.

The target in data set [2] is T2, TRKB (Mus musculus, UniProt P15209). Description: In situ proximity ligation assay (PLA) in TRKB-expressing N2A cells. In kind it is cell-based. Also on record: expressed in transfected cells; host or cells: N2A. The conditions noted are these: biotinylated fluoxetine 10 μM/15 min. The protocol:
Proximity ligation assay was done with Duolink In Situ Red Starter Kit Mouse/Goat (#DUO92103, Sigma-Aldrich), following manufacturer’s instructions. […] Cells were fixed with PFA 4% for 15 min, washed, and incubated in Duolink blocking buffer for 1h at 37°C. Then, the coverslips were incubated with streptavidin-conjugated HRP (1:5000 in Duolink antibody diluent) for 45 min at room temperature. After washing twice in Duolink washing buffer A, samples were incubated overnight at 4°C with a mix of goat anti-TRKB (1:1000, #AF1494, R&D System) and mouse anti-HRP (1:1000, #200-3138-0100, Rockland Immunochemicals) diluted in Duolink antibody diluent. After washing in Duolink washing buffer A, samples were incubated for 1h at 37°C with a mix of minus and plus probes diluted 1:5 in Duolink antibody diluent. Then, ligation of probes with connector oligo was done by washing the samples in washing buffer A, and incubating for 30min at 37°C with ligase (25 U/ml) diluted in the Duolink ligation buffer. Amplification was done by washing the samples in the washing buffer A, and incubating for 100min at 37°C with polymerase (125 U/ml) diluted in the amplification buffer. Coverslips were washed in buffer B, then in buffer B diluted 1:100 in milliQ water, and mounted in Duolink in situ mounting medium with DAPI. All incubation steps were done in a humidified chamber. […]

The target of data set [3] is T2, TRKB. Description: Cell-free ligand binding assay on immobilised TRKB from HEK293T lysates. Also noted: wild-type GFP-tagged full length TRKB or the GFP-tagged Y433F TRKB mutant; host or cells: HEK293T. The conditions noted are these: read-out: Kd of biotinylated FLX binding to immunoprecipitated TRKB; biotinylated ligand 0-100 μM. The protocol: The cell-free assays (binding assays) were performed in white 96-well plates, based on the protocol used for western-blotting or ELISA ([Baeza-Raja et al., 2016]; [Das et al., 2015]). The plates were precoated with anti-GFP, anti-FLAG, anti-TRK or anti-TRKB antibody (1:1000) in carbonate buffer (pH 9.8), ON at 4°C. Following blocking with 3% BSA in PBS buffer (2 h at RT), 120 ug of total protein from each sample (of lysates from HEK293T cells transfected to overexpress GFP-TRKB.wt or GFP-TRKB.Y433F) were added and incubated overnight at 4°C under agitation. […] The luminescence was determined via HRP-conjugated streptavidin (1:10000, 1h, RT) activity reaction with ECL by a plate reader. The luminescence signal from blank wells (containing all the reagents but the sample lystates, substituted by the blocking buffer) was used as background. The specific signal was then calculated by subtracting the values of blank wells from the values of the samples with matched concentration of the biotinylated ligand. For Figure 2E, the precipitated TRKB.wt or Y433F was incubated with tritiated imipramine (0-30μM) and the radioactive emission of the ligand was determined by scintillation (OptiPhase Supermix cocktail: #1200-439; MicroBeta2, Perkin-Elmer). The scintillation signal from blank wells was used as background, and the specific signal was then calculated by subtracting the values of blank wells from the values of the samples with matched concentration of the radioactive ligand.

For data set [4], the system named is TRKB:PLC-γ1 interaction. Kind of data set: TRKB:PLC-γ1 interaction ELISA in cortical cells. The conditions noted are these: pravastatin 1 μM/3 days. In kind it is cell-based, rat. On the procedure: The TRKB:pY (phosphorylated TRKB), TRKB:PLC-γ1, PLC-γ1:pTRKB.Y816 interactions and were determined by ELISA, based on the general method described in literature ([Antila et al., 2014]; [Fred et al., 2019]), with minor adjustments. Briefly, white 96-well plates (OptiPlate 96F-HB, Perkin Elmer) were coated with capturing anti-TRKB or PLC-γ1 antibody (1:1000) in carbonate buffer (pH = 9.8) overnight (ON) at 4°C. Following a blocking step with 2%BSA in TBS-T (2 h, RT), samples were incubated ON at 4°C. The incubation with antibody against pTRKB.Y816, PLC-γ1 or pY (1:2000, ON, 4°C) was followed by HRP-conjugated anti-Rb IgG (1:5000, 2h, RT) or HRP-conjugated streptavidin (1:10000, 2h, RT). Finally, the chemiluminescent signal generated by the reaction with ECL was analyzed in a plate reader (Varioskan Flash, Thermo Scientific).
Background: In an ELISA, binding on a coated surface is turned into a signal by an enzyme label.

For data set [5], the system named is hippocampal cells. Kind of data set: BDNF-induced neurite branching in hippocampal cells (Sholl analysis). Type of data set: cell-based, rat. The settings on record: pravastatin 1 μM/3 days, BDNF 10 ng/ml/3 days. The protocol: MG87.TRKB or primary cultured cortical cells were fixed with 4% paraformaldehyde in PBS, and unspecific binding sites were blocked with a blocking buffer (5% normal donkey serum, 1% Bovine serum albumin, 0.1% gelatin, 0.1% Triton X-100, 0.05% Tween-20 in PBS). The MG87.TRKB cells were stained with anti-GFP, while primary cultures were incubated with anti-actin. The fluorescence was obtained following incubation with secondary antibodies. The coverslips were mounted with Dako Fluorescence Mounting Medium (#S3023). Images were acquired with Zeiss LSM710 confocal microscope (63x oil objective).
For Sholl analysis of cultured hippocampal cells, confocal images were processed using FIJI ImageJ (NIH software), and the number of branches in the 80-μm range from the cell soma were counted using FIJI plugin.

Data set [6] has as its system E18 cortical cells. Description: Cell viability (CellTiterGlo) of cortical cells. Type of data set: cell-based, rat. The conditions noted are these: pravastatin 2 μM for 5 days. On the procedure: The cell viability assay was performed using CellTiterGlo (#G7571; Promega) according to manufacturer’s instructions. Briefly, equal amounts of medium and the mixture of regents A and B were added to the E18 cortical cells (DIV8) cultivated in clear bottom 96-well plates and incubated for 40min. The luminescence was analyzed in a plate reader.
For orientation: In ATP-based viability assays light output follows the ATP content of the culture.

Data set [7] has as its system Sprague-Dawley rats. Kind of data set: BDNF-induced LTP in dentate gyrus of anesthetized rats. In kind it is in vivo, rat. The settings on record: pravastatin 10 mg/kg/day/ in drinking water. The protocol:
In vivo electrophysiology. Intrahippocampal BDNF infusion was performed as described previously ([Messaoudi et al., 1998]). The experiments were carried out on 20 adult male Sprague-Dawley rats (15 weeks old, Janvier, France). Rats were housed in the animal facility for 1-week prior to the start of drug administration. […]
For electrophysiological experiments, rats were anesthetized with an intraperitoneal injection of urethane (U2500, Sigma-Aldrich) 1.5 g/kg body weight, positioned in a stereotaxic frame. The body temperature was constantly monitored and maintained at 37°C with an electric heating pad. Holes were drilled in the skull and a concentric bipolar stimulating electrode (Tip separation 500micrometers; SNEX 100; Rhodes Medical Instruments, Woodland Hills, CA) was positioned in the angular bundle for stimulation of the medial perforant path (7.9 mm posterior to bregma, 4.2 mm lateral to the midline, and 2.5 mm below the dura. […]
Responses were allowed to stabilize for 1 hour at a stimulation intensity that produced a population spike 30% of maximum. […] Evoked responses were recorded for 120 min post infusion. Recorded field potentials were amplified, filtered (0.1 Hz to 10 kHz), and digitized (25 kHz). Electrophysiological data was analyzed using Datawave Technologies Software company. […]

In data set [8] the test system is mice. Description: Object location memory (OLM) test. The conditions noted are these: wild-type mice, pravastatin co-treatment. Type of data set: in vivo, mouse. On the procedure:
Object-location memory (OLM): this test was performed in a square arena (28cm side) with opaque walls containing cues (black stripes or spots). The adult male and female mice (18-22 weeks old) were placed for 3 consecutive days (15min per session) in the arena with two identical objects (table tennis balls glued to caps of 50ml Falcon tubes) in the same position throughout the sessions (pretest).

T2 sequence (P15209 32-821): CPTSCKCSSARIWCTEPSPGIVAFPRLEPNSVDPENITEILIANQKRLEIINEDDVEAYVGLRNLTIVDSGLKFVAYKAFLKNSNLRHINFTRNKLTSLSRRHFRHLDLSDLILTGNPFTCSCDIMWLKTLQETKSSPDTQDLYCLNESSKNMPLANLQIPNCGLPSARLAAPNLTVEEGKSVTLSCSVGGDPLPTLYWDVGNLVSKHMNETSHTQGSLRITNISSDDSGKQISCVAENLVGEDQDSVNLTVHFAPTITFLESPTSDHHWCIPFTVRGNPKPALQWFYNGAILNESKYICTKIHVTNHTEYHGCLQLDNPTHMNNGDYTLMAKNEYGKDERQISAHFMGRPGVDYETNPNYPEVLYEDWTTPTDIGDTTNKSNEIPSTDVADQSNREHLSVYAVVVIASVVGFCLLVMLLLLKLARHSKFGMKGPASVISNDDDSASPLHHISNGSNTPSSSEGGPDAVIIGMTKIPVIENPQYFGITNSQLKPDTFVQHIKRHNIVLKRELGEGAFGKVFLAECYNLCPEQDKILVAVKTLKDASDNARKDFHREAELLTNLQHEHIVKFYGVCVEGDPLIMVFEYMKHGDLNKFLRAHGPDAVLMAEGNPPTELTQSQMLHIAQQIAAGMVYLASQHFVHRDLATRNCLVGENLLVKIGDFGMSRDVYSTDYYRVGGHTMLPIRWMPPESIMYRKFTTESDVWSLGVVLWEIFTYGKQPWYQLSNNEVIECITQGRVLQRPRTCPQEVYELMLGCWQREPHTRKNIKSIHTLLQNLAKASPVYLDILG
T1 sequence (P04629 33-796): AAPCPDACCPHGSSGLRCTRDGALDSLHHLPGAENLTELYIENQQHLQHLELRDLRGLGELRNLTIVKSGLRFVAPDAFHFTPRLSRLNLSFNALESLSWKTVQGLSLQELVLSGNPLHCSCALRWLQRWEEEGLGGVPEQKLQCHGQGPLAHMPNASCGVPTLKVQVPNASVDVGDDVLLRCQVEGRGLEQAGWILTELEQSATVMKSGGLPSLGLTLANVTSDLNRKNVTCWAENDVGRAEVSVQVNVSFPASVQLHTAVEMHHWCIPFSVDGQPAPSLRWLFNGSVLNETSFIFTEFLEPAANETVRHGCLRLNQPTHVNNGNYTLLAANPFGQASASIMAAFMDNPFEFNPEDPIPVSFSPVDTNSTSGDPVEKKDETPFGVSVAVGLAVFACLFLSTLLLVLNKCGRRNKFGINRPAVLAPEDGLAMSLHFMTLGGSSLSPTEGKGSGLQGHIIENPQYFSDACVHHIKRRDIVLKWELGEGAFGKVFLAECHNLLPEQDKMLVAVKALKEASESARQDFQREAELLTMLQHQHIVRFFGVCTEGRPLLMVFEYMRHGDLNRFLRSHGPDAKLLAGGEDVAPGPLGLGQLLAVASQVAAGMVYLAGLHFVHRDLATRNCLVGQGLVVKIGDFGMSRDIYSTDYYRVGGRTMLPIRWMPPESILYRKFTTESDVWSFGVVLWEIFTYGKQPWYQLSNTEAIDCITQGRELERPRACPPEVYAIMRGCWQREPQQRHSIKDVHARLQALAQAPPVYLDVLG

For the molecule `CN(CCC(Oc1ccc(C(F)(F)F)cc1)c1ccccc1)C(=O)CCOCCOCCOCCOCCNC(=O)CCCC[C@@H]1SC[C@@H]2NC(=O)N[C@@H]21` (some centres unmarked) [biotinylated FLX], the “interaction of biotinylated fluoxetine with TRKA” value in data set [1] is listed as “negligible”. In data set [2], the “PLA signal between biotinylated FLX and TRKB” value is “robust PLA signal”. The dissociation constant Kd in data set [3] is 2420 nM.
Consider `CC[C@H](C)C(=O)O[C@H]1C[C@H](O)C=C2C=C[C@H](C)[C@H](CC[C@@H](O)C[C@@H](O)CC(=O)O)[C@H]21` [pravastatin], for which the “effect on BDNF-induced TRKB-PLC-γ1 interaction” value in data set [4] is given as “prevented”. The “effect on BDNF-induced neurite branching” value in data set [5] is on record as “prevented”. In data set [6], the neuronal survival result is “reduced neuronal survival”. Also, the “effect on BDNF-induced increase in synaptic strength (LTP)” value in data set [7] is “partially prevented”. Also, the “effect on R,R-HNK-improved object location memory” value in data set [8] is recorded as “prevented”.
